Data: patent US6894185B2, “Substituted chiral allosteric hemoglobin modifiers” (Allós Therapeutics, Inc., priority 1999, dated 2005)

These compounds were tested against T1, hemoglobin (Homo sapiens, UniProt P68871+P69905) (assay: In vitro whole blood studies (multi-point tonometry and blood gas analysis)). Settings: Table II.
T1 construct: The whole blood samples were collected in heparinized tubes from healthy volunteers; from tissue; host or cells: human whole blood (heparinized) from healthy volunteers
T1 sequence (P69905 2-142 limits assumed): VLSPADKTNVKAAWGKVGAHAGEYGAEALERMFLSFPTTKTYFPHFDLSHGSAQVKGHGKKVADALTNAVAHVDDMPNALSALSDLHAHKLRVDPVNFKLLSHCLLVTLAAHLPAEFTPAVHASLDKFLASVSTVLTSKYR
T1 sequence (P68871 2-147 limits assumed): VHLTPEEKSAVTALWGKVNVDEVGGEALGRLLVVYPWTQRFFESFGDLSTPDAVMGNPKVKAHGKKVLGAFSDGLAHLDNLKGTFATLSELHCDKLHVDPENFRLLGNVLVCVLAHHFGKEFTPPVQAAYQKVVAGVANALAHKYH
Assay type: cell-based
Protocol: Structure-allosteric activity relationships were determined from the synthetic chiral effectors comparing the shift in the oxygen binding curve of Hb solutions using a Hemox-Analyzer. In vitro biological activity testing in the presence of plasma proteins was also performed on selected enantiomers and racemates (multi-point tonometry and blood gas analysis) to screen for candidates with potential clinical use. SAR studies compared the degree in shift in P50 values, i.e., the partial pressure of molecular oxygen necessary to half-saturate hemoglobin. An effector that decreases Hb oxygen affinity increases the P50 value relative to the control. Thus, the activity or potency of each analog could be expressed by the ratio P50 (effector)/P50(control). Tables and II and III summarize the p50 values obtained using human whole blood, while Tables IV and V summarize the P50 and the Hill coefficient values (n50) at half-saturation obtained using Hemox-analyzer. The slope of the log of the oxygen binding curves is known as the Hill coefficient. The Hill coefficient measures the degree of cooperativity in binding for an allosteric protein, the normal range for human blood is 2.7-3.2. Table VI presents the results from the whole blood studies given as a ΔP50 and Hill coefficient (n50) values for the enantiomers and racemates.
The whole blood samples were collected in heparinized tubes from healthy volunteers and stored over ice. The sodium salts of the compounds were prepared as described earlier. A 200 mM stock solution of the effector was prepared in DMSO. A 5.0 mM test solution was prepared from 50 μL of the 200 mM test solution and 1950 μL of whole blood. The blood samples were incubated in IL 237 tonometers (Instrumentation Laboratories, Inc. Lexington, Mass.) for approximately 10-12 min at 37° C. and equilibrated at three separate concentrations of O2 (20%, 40%, and 60%). After equilibration at each concentration of O2, a sample was removed via syringe and aspirated into a IL 1420 Automated Blood Gas Analyzer (Instrumentation Laboratories, Inc. Lexington, Mass.) and a IL 482 and IL 682 Co-oximeter (Instrumentation Laboratories, Inc. Lexington, Mass.) to determine the pH, pCO2, pO2 and the hemoglobin oxygen saturation values (sO2), respectively. The measured values for pO2 and sO2 at each oxygen saturation level were then subjected to a non-linear regression analysis using the program Scientist (Micromath, Salt Lake City, Utah) to calculate the P50 and Hill coefficient values.

**Q.** `Cc1cc(C)cc(NC(=O)C(O)c2ccc(OC(C)(C)C(=O)O)cc2)c1` (stereo not shown) [Compound 12, 2-{4-[(3,5-Dimethyl-phenylcarbamoyl)-hydroxy-methyl]-phenoxy}-2-methyl-propionic acid] was tested. Which “Whole Blood Δp50 mm Hg” value did it give?
**A.** The value was 21 mm Hg.

**Q.** How did the “Whole Blood Δp50 mm Hg” value turn out when `CCOC(C(=O)Nc1cc(C)cc(C)c1)c1ccc(OC(C)(C)C(=O)O)cc1` (stereo not shown) [Compound 13, 2-{4-[(3,5-Dimethyl-phenylcarbamoyl)-ethoxy-methyl]-phenoxy}-2-methyl-propionic acid] was run?
**A.** Its value is 4 mm Hg.

**Q.** How did the “Whole Blood Δp50 mm Hg” value turn out when `Cc1cc(C)cc(NC(=O)Cc2ccc(OC(C(=O)O)c3ccccc3)cc2)c1` (stereo not shown) [Compound 14] was run?
**A.** Its value is 15 mm Hg.

**Q.** With `Cc1cc(C)cc(NC(=O)Cc2ccc(OC(C)(C(=O)O)c3ccccc3)cc2)c1` (stereo not shown) [Compound 15] as the compound, how does the “Whole Blood Δp50 mm Hg” value read?
**A.** The value was 12 mm Hg.

**Q.** For `CCC(Oc1ccc(CC(=O)Nc2cc(C)cc(C)c2)cc1)(C(=O)O)c1ccccc1` (stereo not shown) [Compound 16], which “Whole Blood Δp50 mm Hg” value is on record?
**A.** Its value is 12 mm Hg.

**Q.** With `Cc1cc(C)cc(NC(=O)C2(C)CCc3cc(OC(C)(C)C(=O)O)c(C)c(C)c3O2)c1` (stereo not shown) [Compound 17] as the compound, how does the “Whole Blood Δp50 mm Hg” value read?
**A.** Its value is 1 mm Hg.

Same assay, conditions: Table III

**Q.** “1-[4-(((3,5-dimethylanilino)carbonyl)methyl) phenoxy]cyclopentane carbonyl glycine [Compound 37]” was tested. Which “Whole Blood Δp50 mm Hg” value did it give?
**A.** The value was 25 mm Hg.

**Q.** For `Cc1cc(C)cc(NC(=O)Cc2ccc(OC(C)(C)C(=O)NC(C)C(=O)O)cc2)c1` (stereo not shown) [Compound 22], which “Whole Blood Δp50 mm Hg” value is on record?
**A.** Its value is 17 mm Hg.

**Q.** How did the “Whole Blood Δp50 mm Hg” value turn out when `Cc1cc(C)cc(NC(=O)Cc2ccc(OC(C)(C)C(=O)NC(C)C(=O)O)cc2)c1` (stereo not shown) [Compound 23] was run?
**A.** The value was 22 mm Hg.

**Q.** How did the “Whole Blood Δp50 mm Hg” value turn out when `Cc1cc(C)cc(NC(=O)Cc2ccc(OC(C)(C)C(=O)NC(C(=O)O)C(C)C)cc2)c1` (stereo not shown) [Compound 24] was run?
**A.** The value was 22 mm Hg.

**Q.** For `Cc1cc(C)cc(NC(=O)Cc2ccc(OC(C)(C)C(=O)NC(C(=O)O)C(C)C)cc2)c1` (stereo not shown) [Compound 25], which “Whole Blood Δp50 mm Hg” value is on record?
**A.** Its value is 20 mm Hg.

**Q.** `Cc1cc(C)cc(NC(=O)Cc2ccc(OC(C)(C)C(=O)NC(C(=O)O)C(C)C)cc2)c1` (stereo not shown) [Compound 26] was tested. Which “Whole Blood Δp50 mm Hg” value did it give?
**A.** Its value is 20 mm Hg.

**Q.** With `Cc1cc(C)cc(NC(=O)Cc2ccc(OC(C)(C)C(=O)NC(Cc3ccccc3)C(=O)O)cc2)c1` (stereo not shown) [Compound 27] as the compound, how does the “Whole Blood Δp50 mm Hg” value read?
**A.** Its value is 10 mm Hg.

**Q.** How did the “Whole Blood Δp50 mm Hg” value turn out when `Cc1cc(C)cc(NC(=O)Cc2ccc(OC(C)(C)C(=O)NC(Cc3ccccc3)C(=O)O)cc2)c1` (stereo not shown) [Compound 28] was run?
**A.** Its value is 20 mm Hg.

**Q.** How did the “Whole Blood Δp50 mm Hg” value turn out when `COC(=O)C(CCC(=O)O)NC(=O)C(C)(C)Oc1ccc(CC(=O)Nc2cc(C)cc(C)c2)cc1` (stereo not shown) [Compound 30] was run?
**A.** Its value is 26 mm Hg.

**Q.** For `COC(=O)C(CC(=O)O)NC(=O)C(C)(C)Oc1ccc(CC(=O)Nc2cc(C)cc(C)c2)cc1` (stereo not shown) [Compound 31], which “Whole Blood Δp50 mm Hg” value is on record?
**A.** Its value is 21 mm Hg.

**Q.** How did the “Whole Blood Δp50 mm Hg” value turn out when `Cc1cc(C)cc(NC(=O)Cc2ccc(OC(C)(C)C(=O)NC(Cc3c[nH]c4ccccc34)C(=O)O)cc2)c1` (stereo not shown) [Compound 32] was run?
**A.** Its value is 11 mm Hg.

**Q.** With `CSCCC(NC(=O)C(C)(C)Oc1ccc(CC(=O)Nc2cc(C)cc(C)c2)cc1)C(=O)O` (stereo not shown) [Compound 33, 2-(2-(4-((3,5-Dimethyl-phenylcarbamoyl)-methyl)-phenoxy)-2-methyl-propionylamino)-4-methylsulfanyl-butyric acid] as the compound, how does the “Whole Blood Δp50 mm Hg” value read?
**A.** The value was 16 mm Hg.

**Q.** `CSCCC(NC(=O)C(C)(C)Oc1ccc(CC(=O)Nc2cc(C)cc(C)c2)cc1)C(=O)O` (stereo not shown) [Compound 34, 2-(2-(4-((3,5-Dimethyl-phenylcarbamoyl)-methyl)-phenoxy)-2-methyl-propionylamino)-4-methylsulfanyl-butyric acid] was tested. Which “Whole Blood Δp50 mm Hg” value did it give?
**A.** The value was 11 mm Hg.

**Q.** `Cc1cc(C)cc(NC(=O)Cc2ccc(OC(C)(C)C(=O)N3CCCC3C(=O)O)cc2)c1` (stereo not shown) [Compound 35] was tested. Which “Whole Blood Δp50 mm Hg” value did it give?
**A.** The value was 12 mm Hg.

**Q.** `Cc1cc(C)cc(NC(=O)Cc2ccc(OC(C)(C)C(=O)NC(CSCc3ccccc3)C(=O)O)cc2)c1` (stereo not shown) [Compound 36, 3-Benzylsulfanyl-2-(2-(4-((3,5-Dimethyl)-phenylcarbamoyl)-methyl-phenoxy)-2-methyl-propionylamino)-propionic acid] was tested. Which “Whole Blood Δp50 mm Hg” value did it give?
**A.** Its value is 18 mm Hg.

**Q.** Which “Whole Blood Δp50 mm Hg” value does the source give for `Cc1cc(C)cc(NC(=O)Cc2ccc(OC3(C(=O)N[C@H](C)C(=O)O)CCCC3)cc2)c1` [Compound 38, 1-[4-(((3,5-dimethylanilino)carbonyl)methyl)phenoxy]cyclopentanecarbonyl-D-alanine] here?
**A.** The value was 30 mm Hg.

**Q.** How did the “Whole Blood Δp50 mm Hg” value turn out when `Cc1cc(C)cc(NC(=O)Cc2ccc(OC3(C(=O)N[C@@H](C(=O)O)C(C)C)CCCC3)cc2)c1` [Compound 42, 1-[4-(((3,5-dimethylanilino)carbonyl)methyl)phenoxy]cyclopentanecarbonyl-D-valine] was run?
**A.** Its value is 27 mm Hg.

**Q.** How did the “Whole Blood Δp50 mm Hg” value turn out when `Cc1cc(C)cc(NC(=O)Cc2ccc(OC3(C(=O)N[C@@H](Cc4ccccc4)C(=O)O)CCCC3)cc2)c1` [Compound 45, 1-[4-(((3,5-dimethylanilino)carbonyl)methyl)phenoxy]cyclopentanecarbonyl-L-phenylalanine] was run?
**A.** Its value is 20 mm Hg.

**Q.** With `Cc1cc(C)cc(NC(=O)Cc2ccc(OC3(C(=O)N[C@@H](Cc4c[nH]c5ccccc45)C(=O)O)CCCC3)cc2)c1` [Compound 47, 1-[4-(((3,5-dimethylanilino)carbonyl)methyl)phenoxy]cyclopentanecarbonyl-L-tryptophan] as the compound, how does the “Whole Blood Δp50 mm Hg” value read?
**A.** The value was 20 mm Hg.

**Q.** `Cc1cc(C)cc(NC(=O)Cc2ccc(OC3(C(=O)N[C@@H](CCC(=O)O)C(=O)O)CCCC3)cc2)c1` [Compound 48, 1-[4-(((3,5-dimethylanilino)carbonyl)methyl)phenoxy]cyclopentanecarbonyl-L-glutamate] was tested. Which “Whole Blood Δp50 mm Hg” value did it give?
**A.** Its value is 22 mm Hg.

**Q.** With `CSCC[C@H](NC(=O)C1(Oc2ccc(CC(=O)Nc3cc(C)cc(C)c3)cc2)CCCC1)C(=O)O` [Compound 52, 1-[4-(((3,5-dimethylanilino)carbonyl)methyl)phenoxy]cyclopentanecarbonyl-L-methionine] as the compound, how does the “Whole Blood Δp50 mm Hg” value read?
**A.** The value was 21 mm Hg.

**Q.** For `Cc1cc(C)cc(NC(=O)Cc2ccc(OC3(C(=O)N[C@@H](CC(=O)O)C(=O)O)CCCC3)cc2)c1` [Compound 55, 1-[4-(((3,5-dimethylanilino)carbonyl)methyl)phenoxy]cyclopentanecarbonyl-L-aspartate], which “Whole Blood Δp50 mm Hg” value is on record?
**A.** The value was 27 mm Hg.

**Q.** Which “Whole Blood Δp50 mm Hg” value does the source give for `Cc1cc(C)cc(NC(=O)Cc2ccc(OC3(C(=O)N[C@@H](CSCc4ccccc4)C(=O)O)CCCC3)cc2)c1` [Compound 57, 1-[4-(((3,5-dimethylanilino)carbonyl)methyl)phenoxy]cyclopentanecarbonyl S-benzyl-L-cysteine] here?
**A.** The value was 7 mm Hg.

**Q.** For `Cc1cc(C)cc(NC(=O)Cc2ccc(OC3(C(=O)N[C@@H](CCCCNC(=O)OCc4ccccc4)C(=O)O)CCCC3)cc2)c1` [Compound 59, N^a-1-[4-(((3,5dimethylanilino)carbonyl)methyl)phenoxy]cyclopentane-carbonyl-N^e-benzyloxycarbonyl-L-lysine], which “Whole Blood Δp50 mm Hg” value is on record?
**A.** The value was 0.4 mm Hg.

**Q.** For `Cc1cc(C)cc(NC(=O)Cc2ccc(OC3(C(=O)N[C@H](CCCCNC(=O)OCc4ccccc4)C(=O)O)CCCC3)cc2)c1` [Compound 60, N^a-1-[4-(((3,5dimethylanilino)carbonyl)methyl)phenoxy]cyclopentane-carbonyl-N^e-benzyloxycarbonyl-D-lysine], which “Whole Blood Δp50 mm Hg” value is on record?
**A.** Its value is 14 mm Hg.

**Q.** For `Cc1cc(C)cc(NC(=O)Cc2ccc(OC3(C(=O)N[C@H](CCCCN)C(=O)O)CCCC3)cc2)c1` [Compound 61, 1-[4-(((3,5-dimethylanilino)carbonyl)methyl)phenoxy]cyclopentanecarbonyl-D-lysine], which “Whole Blood Δp50 mm Hg” value is on record?
**A.** The value was −0.2 mm Hg.

**Q.** How did the “Whole Blood Δp50 mm Hg” value turn out when `Cc1cc(C)cc(NC(=O)Cc2ccc(OC(C)(C)C(=O)NCC(=O)O)cc2)c1` [KDD4-24] was run?
**A.** Its value is 17 mm Hg.

**Q.** For “(2-(2-{4-[(3,5-Dimethyl-phenylcarbamoyl)-methyl]-phenoxy}-2-methyl-propionylamino)-4-pentanoic acid [Compound 29]”, which “Whole Blood Δp50 mm Hg” value is on record?
**A.** The value was 10 mm Hg.
